Measured values as given in PubChem BioAssay AID1508591.

Details: rat; liver microsomes; pH 7.4; 15.0 min; 1.0 µM

Compound | half-life [min]
Cc1ccc(-n2ncc(C(=O)NCCN3CCC(Cc4ccccc4)CC3)c2C2CCN(C(=O)OC(C)(C)C)CC2)cc1 | 9.29
Cc1nc(-c2ccco2)cc([C@H]2CN3CC[C@H]2C[C@@H]3CNC(=O)NC2CCCCC2)n1 | 29.6
O=[S+]([O-])(Nc1cccc2ccccc12)c1ccc(NCc2ccc(Cl)cc2O)cc1 | 5.4
CCN(CC)C(=O)N1c2ccccc2C=Cc2ccccc21 | 1.07
CCN(CC)C(=O)c1ccc(O)c(OC)c1 | > 30
CCNC(=O)C[C@@H]1N=C(c2ccc(Cl)cc2)c2cc(OC)ccc2-n2c(C)nnc21 | > 30
CNc1oc(-c2ccccc2-c2ccccc2)nc1C#N | 5.8
O=C(Nc1cccnc1)c1cccs1 | > 30
O=C(c1cnc(N2CCCCC2)c2ccccc12)N1CCN(c2ccc(Cl)cc2)CC1 | 2.8
CCn1c(C)c(C(C)=O)c(C)c1C(=O)Nc1cccc([S+](=O)([O-])N(C)C)c1 | 6.5
CC(C)NC(=O)c1nc(-c2ccc(Cl)nc2)c2cnccn12 | > 30
NC(=O)C1CCN(c2nc(-c3cccnc3)cs2)CC1 | > 30
CC(C)Oc1ccc(-c2csc(N3CCC(C(N)=O)CC3)n2)cc1 | > 30
CN(C)c1cccc(-c2ncc(F)c(N3CCC(C(N)=O)CC3)n2)c1 | 2.08
Cc1cc(C)nc(NS(=O)(=O)c2ccc(NC(=S)NC(=O)COc3ccc(Br)cc3Cl)cc2)n1 | > 30
CC(C)c1ccc(Nc2c(-c3ccccn3)nc3ccccn23)cc1 | 2.1
CC(C)(C)OC(=O)N1CCN(c2ccc(NCc3ccc(-c4ccc(C#N)cc4)o3)cc2)CC1 | 3.62
COc1cc(C(=S)N2CCN(CCO)CC2)ccc1OCc1ccc(C)cc1 | 3.2
OCCNc1ncnc2c1ncn2[C@@H]1O[C@@H](CO)[C@H](O)[C@@H]1O | > 30
C[C@H]1CN(C(=O)Nc2ccc(F)cc2F)C[C@@H]1c1nc(-c2ccccc2)no1 | > 30
Cc1cccc(-n2cnc3cc(C(=O)N4CCCCC4)ccc32)c1 | 5.85
COCCNC(=O)[C@H]1C[C@H](Oc2ccccc2)CN1Cc1ccc2[nH]ccc2c1 | 0.97
C[C@H]1CN(C(=O)c2nn(C)c3ccccc23)C[C@@H]1c1nc(-c2cccnc2)no1 | 4.4
CCOc1ccc(CCNC(=O)c2cc3sccc3n2C(C)C)cc1OCC | 1.7
CCOC(=O)N1CCc2c(sc(NCc3ccc(N(C)C)cc3)c2C(=O)Nc2ccc(OC)cc2)C1 | > 30
COc1ccccc1-c1csc(N2CCC(C(N)=O)CC2)n1 | 15

Compound | half-life [min]
O=C(NCCCn1ccnc1)c1ccc(-c2ncc3cnc(-c4cccc(F)c4)cn23)cc1 | 22.5
COC(=O)c1ccc2c(C(=Nc3ccc(N(C)C(=O)CN4CCN(C)CC4)cc3)c3ccccc3)c(O)[nH]c2c1 | > 30
CCOC(=O)c1ccnc(CNCC(=O)N(CC)CCN(C)C)c1 | > 30
Cc1ccc(S(=O)(=O)Nc2cnccc2C(=O)Nc2nc(-c3ccc(-c4ccccc4)cc3)cs2)cc1 | > 30
Cc1noc(C)c1C(=O)N1CCC2(CC1)CCN(C(c1ccccc1)c1ccccc1)CC2 | 9.4
O=C(NC1CCCc2c1cnn2-c1ccc(O)cc1)c1ccccn1 (centres undefined) | > 30
COc1ccc(CCNC(=O)c2cc3c(=O)n4ccccc4nc3n(CCCN3CCOCC3)c2=N)cc1 | 8.26
CCOC(=O)c1ccc2c(c1)c(C(C)=O)c(C)n2-c1ccc(OC)cc1 | 1.5
CCOc1ccc(CCNC(=O)c2cc3ccccc3n2Cc2cccc(C)c2)cc1OCC | 1.6
c1ccc(-c2nnc3n2NC(c2ccc4c(c2)OCO4)S3)cc1 (centres undefined) | > 30
O=C(Nc1cc(C(F)(F)F)ccc1N1CCOCC1)c1n[nH]c(=O)c2ccccc12 | > 30
CCOC(=O)C1CCN(c2ncc(-c3ccc4c(c3)OCCCO4)s2)CC1 | 2.37
Oc1ccc(CNc2ccccc2F)c2cccnc12 | 3.7
O=C(Nc1ccc(N2CCC(N3CCCCC3)CC2)c(C(=O)O)c1)c1ccc(Br)cc1 | > 30
CN(C)CCN1C(=O)c2cccc3cc(N)cc(c23)C1=O | > 30
O=c1[nH]cnc2nc[nH]c12 | > 30
O=C1c2ccccc2C2=Nc3ccccc3SC(c3ccccc3F)C12 (centres undefined) | 3.11
COc1ccc2[nH]c3c(C)c4ccncc4c(C)c3c2c1 | > 30
O=C(Cc1c[nH]c2ncc(-c3ccc(Cl)cc3)cc12)NCc1cccnc1 | 1.66
COc1cccc(CNc2ccc(S(=O)(=O)Nc3nccs3)cc2)c1OC | 11
Cc1cc(C)c(CNC(=O)c2nc(-c3ccc(CN(C)C)cc3)cc3c2ccn3C(C)C)c(=O)[nH]1 | > 30
CCOC(=O)c1ccc(N2C(=O)c3n[nH]c(-c4ccco4)c3C2c2ccc(C)cc2)cc1 (centres undefined) | 8.24
COc1ccccc1NS(=O)(=O)c1cccc(NC(=O)c2[nH]c(C)c(C(C)=O)c2C)c1 | 4.7
COc1cc(C(=O)NC2CCCc3c2[nH]c2ccccc32)cc(OC)c1OC (centres undefined) | 11.8
Cc1ccc(-c2cc(C(=O)Nc3ncco3)c3ccccc3n2)cc1C | 5.7
COc1cc2ncnc(Oc3cccc(NC(=O)Nc4cc(C(C)(C)C(F)(F)F)on4)c3)c2cc1OC | > 30

Compound | half-life [min]
Oc1ccccc1NCC(O)Cn1ccc2ccccc21 (centres undefined) | 2.37
C#CCNC(=O)c1nc(-c2cccnc2)c2ccccn12 | 14.8
CC(=O)Nc1nc(C)c(-c2ccc(Cl)c(S(=O)(=O)NCCO)c2)s1 | > 30
COc1ccc(CNC(=O)Cn2nc3c(cc2=O)CCCC3)cc1 | > 30
O=C(NCCCCc1ccccc1)C1CCN(c2nc(-c3ccc(Br)cc3)cs2)CC1 | 4.1
O=S(=O)(c1ccccc1)c1nnn2c1nc(NCc1cccs1)c1sccc12 | 1.88
Cc1ccc2oc3c(c(=O)c2c1)C(c1ccc(O)cc1)N(CCCN(C)C)C3=O (centres undefined) | > 30
O=C(c1ccc2c(c1)ncn2-c1cccc(C(F)(F)F)c1)N1CCCCC1 | 4.4
FC(F)(F)c1ccccc1-c1nc(NCc2ccc(-c3cccnc3)cc2)c2ccccc2n1 | 9.18
O=C(Nc1ccc(S(=O)(=O)Nc2nccs2)cc1)c1cccc2ccccc12 | > 30
Cn1c(CN2CCCCC2)nc2cc(NC(=O)c3cccc(Br)c3)ccc21 | > 30
C=C1c2cccc(O)c2C(O)=C2C(=O)[C@]3(O)C(O)=C(C(N)=O)C(=O)[C@@H](N(C)C)[C@@H]3[C@@H](O)[C@H]12 | > 30
COc1nccc(-c2nc(Nc3ccc(F)c(F)c3)c3ccccc3n2)c1Cl | > 30
Cc1cc(-c2nc(Nc3ccc(F)c(F)c3)c3ccccc3n2)cc(C)n1 | > 30
CN(C)C(=O)c1cc(-c2ccc(S(C)(=O)=O)cc2)c2cnn(C)c2n1 | > 30
CC(=O)c1c(C)[nH]c(C(=O)Nc2ccc(Cl)cc2)c1C | > 30
CCOC(=O)c1nn(-c2ccccc2)c(=O)c2c(N)scc12 | 2.12
Cc1ccc(-c2cc(C(=O)Nc3ccc(S(=O)(=O)N(C)C)cc3)c3ccccc3n2)cc1C | 3.4
Fc1ccc(-c2csc3ncnc(Sc4nnnn4-c4ccccc4)c23)cc1 | 1.6
Cc1cnc(-c2ccccc2OC(C)C)nc1NCc1ccc(-n2ccnn2)cc1 | 6.45
COC(=O)[C@]12CCC(C)(C)C[C@@H]1[C@@H]1C(=O)C=C3[C@@]4(C)C=C(C#N)C(=O)C(C)(C)[C@@H]4CC[C@@]3(C)[C@]1(C)CC2 | 5.97
c1cc(OCCN2CCCCC2)cc(-c2n[nH]c3ccc(-c4ncn[nH]4)cc23)c1 | > 30
Cc1noc(C)c1-c1ccc2ncnc(NC(C)c3ccccc3)c2c1 (centres undefined) | 7.65
CN1CCN(c2ccc(Nc3nn4c(=O)c5ccccc5nc4s3)cc2)CC1 | 15.2
Cn1cc(C2=C(c3cn(CCCSC(=N)N)c4ccccc34)C(=O)NC2=O)c2ccccc21 | 4.4
CCCc1nnc(NC(=O)c2nc(S(=O)(=O)Cc3ccc(C)cc3)ncc2Cl)s1 | 5.28

Compound | half-life [min]
COc1ccc(S(=O)(=O)N2CCCCCC2)cc1NC(=O)Cc1n[nH]c(=O)c2ccccc12 | 2.9
Cc1ccccc1C(=O)N1CCc2cc(-c3cccc(NC(=O)Cc4ccc5c(c4)OCO5)c3)ccc21 | 9.7
Cc1cccc(C)c1Nc1c(-c2ccccn2)nc2ccc(Cl)cn12 | 1.86
CCOc1ccc(S(=O)(=O)NCc2cccnc2)cc1NC(=O)c1ccccc1F | 2.82
Cc1csc2nc(-c3cccc(NC(=O)c4ccccc4Cl)c3)cn12 | 0.9
Cc1cc(C(=O)Nc2nnc(C3CCCCC3)s2)cs1 | 7.1
NC(=O)C1CCN(c2nc(-c3ccc4occc(=O)c4c3)cs2)CC1 | 6.19
CCOc1ccc(CCNC(=O)c2cc3sccc3n2Cc2ccc(Cl)c(F)c2)cc1OCC | 1.75
CCOC(=O)C1CCN(C(=O)C2(NC(=O)Nc3ccccc3Cl)CCCC2)CC1 | 1.5
Fc1cccc(CN2CCNc3cc(Nc4ccccc4)ncc3C2)c1 | 1.14
Cn1nnnc1Sc1ncnc2sc(-c3ccccc3)cc12 | 12.3
COc1ccccc1CNC(=O)CCCn1nc(C)c2c(C)n(-c3ccc(C)cc3)nc2c1=O | 3.45
COc1cccc(NC(=S)N2CCN(c3cccc(C(F)(F)F)c3)CC2)n1 | 17.6
COC(=O)CNC(=O)c1nc(-c2ccc(Cl)nc2)c2ccccn12 | 4.72
COc1ccc(C(=O)NC2CCCc3c2[nH]c2c(Cl)cccc32)cc1OC (centres undefined) | 22.4
CN(C)c1cccc(-c2c3c(=O)n(-c4ccccc4Cl)[nH]c3cc(=O)n2C)c1 | > 30
COc1ccc(CN2CCc3c(c(=O)n4ncc(C(=O)N5CCN(c6ccccc6OC)CC5)c4n3C)C2)cc1 | 1.97
COc1ccc(NC(=O)c2c(C)cccc2C)cc1S(=O)(=O)Nc1ccc(Br)cc1 | 5.2
CCOc1ccc(CCNC(=O)c2ccc3ccccc3n2)cc1OCC | 1.7
CCOC(=O)c1c[nH]c2c3c(ccc2c1=O)CCCC3 | 20.4
COc1ccccc1N1CCN(CCN(C(=O)c2ccc(I)cc2)c2ccccn2)CC1 | 1.49
O=C1Nc2ccc(-c3cccc(C(F)(F)F)c3)cc2C(=O)N2CCN(C(=O)COc3ccccc3)C[C@H]12 | 5.73
CC(=O)c1c(C)c(C(=O)Nc2cccc([S+](=O)([O-])N(C)C)c2)n(C)c1C | 15
O=S(=O)(Nc1nccs1)c1ccc(NCc2ccc(Br)cc2O)cc1 | 5.4
Oc1ccc(CNc2cccc(F)c2)c2cccnc12 | 4.1
CN(C)CCCN1c2ccc(O)cc2Sc2ccc(Cl)cc21 | 10.7
